# Results as given in patent publication US7074789B2, “Kinase inhibitors” (Amgen Inc., priority 1999, dated 2006).
# What was measured:
# Format in all cases: biochemical
# [1] = target: T1, Lck (Homo sapiens, UniProt P06239); assay: Kinase inhibition assay (33P transfer), Lck; details: Table 3; read-out: Lck-1
# T1 construct: Kinases are expressed as either kinase domains or full length constructs; made in house
# Method in brief: (§1)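 Enzyme activity is taken as the amount of 33PO4 moved from ATP onto poly(Glu, Tyr) 4:1 or poly(Arg, Ser) 3:1 fixed to the plate surface. Unbound label is removed with 0.5% phosphoric acid before scintillation counting.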
# [2] = target: T2, Zap-70 (Homo sapiens, UniProt P43403); assay: Kinase inhibition assay (33P transfer), Zap-70; details: Table 3; read-out: Zap-1
# T2 construct: Kinases are expressed as either kinase domains or full length constructs; made in house
# T2 sequence (P43403 1-619): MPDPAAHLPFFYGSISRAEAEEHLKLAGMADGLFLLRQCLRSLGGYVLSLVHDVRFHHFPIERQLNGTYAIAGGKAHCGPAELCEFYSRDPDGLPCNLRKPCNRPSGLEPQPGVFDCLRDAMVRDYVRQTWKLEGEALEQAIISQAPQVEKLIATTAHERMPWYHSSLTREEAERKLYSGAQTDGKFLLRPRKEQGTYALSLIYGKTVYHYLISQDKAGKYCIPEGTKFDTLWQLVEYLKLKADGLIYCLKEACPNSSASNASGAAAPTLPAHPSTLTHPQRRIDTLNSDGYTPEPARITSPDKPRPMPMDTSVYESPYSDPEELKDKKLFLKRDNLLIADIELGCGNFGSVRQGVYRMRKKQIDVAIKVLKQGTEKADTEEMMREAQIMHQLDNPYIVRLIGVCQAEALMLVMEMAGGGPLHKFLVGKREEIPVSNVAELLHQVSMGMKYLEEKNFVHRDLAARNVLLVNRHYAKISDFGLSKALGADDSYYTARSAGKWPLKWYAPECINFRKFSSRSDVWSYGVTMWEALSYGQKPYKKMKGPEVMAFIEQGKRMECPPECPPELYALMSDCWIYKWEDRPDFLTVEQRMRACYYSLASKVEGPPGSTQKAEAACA
# Method in brief: as §1
# [3] = target: T3, Itk (Homo sapiens, UniProt Q08881); assay: Kinase inhibition assay (33P transfer), Itk; details: Table 3; read-out: Itk-1
# T3 construct: Kinases are expressed as either kinase domains or full length constructs; made in house
# T3 sequence (Q08881 1-620): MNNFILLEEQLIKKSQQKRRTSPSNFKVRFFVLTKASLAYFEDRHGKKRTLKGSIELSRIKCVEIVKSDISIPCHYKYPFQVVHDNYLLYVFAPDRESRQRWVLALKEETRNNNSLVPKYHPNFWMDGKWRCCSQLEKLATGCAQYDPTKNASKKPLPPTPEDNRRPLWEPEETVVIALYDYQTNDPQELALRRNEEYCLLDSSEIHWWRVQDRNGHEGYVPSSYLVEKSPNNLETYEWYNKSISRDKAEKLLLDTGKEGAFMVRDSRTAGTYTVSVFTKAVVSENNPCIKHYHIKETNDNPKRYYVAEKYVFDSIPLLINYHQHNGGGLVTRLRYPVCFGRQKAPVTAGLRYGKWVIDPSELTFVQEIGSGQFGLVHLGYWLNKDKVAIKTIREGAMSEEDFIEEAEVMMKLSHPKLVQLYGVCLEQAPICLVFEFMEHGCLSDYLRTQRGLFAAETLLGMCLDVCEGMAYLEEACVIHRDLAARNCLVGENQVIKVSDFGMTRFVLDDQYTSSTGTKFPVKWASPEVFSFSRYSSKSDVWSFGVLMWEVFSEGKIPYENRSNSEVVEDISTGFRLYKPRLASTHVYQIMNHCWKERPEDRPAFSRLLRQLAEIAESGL
# Method in brief: (§2)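 Activity read as 33P incorporation from ATP into poly(Glu,Tyr) 4:1 or poly(Arg,Ser) 3:1 substrate bound to microtiter plates, measured by scintillation after acid washing. Enzymes were affinity-purified GST or polyHis fusions (kinase domain or full length) from E. coli or baculovirus; IC50 = 50% reduction in labelled phosphate.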
# [4] = target: T4, EGFR (Homo sapiens, UniProt P00533); assay: Kinase inhibition assay (33P transfer), EGFR; details: Table 2, kinase inhibition class; read-out: EGFR-1
# T4 construct: Kinases are expressed as either kinase domains or full length constructs; made in house
# T4 sequence (P00533 25-1210, species assumed): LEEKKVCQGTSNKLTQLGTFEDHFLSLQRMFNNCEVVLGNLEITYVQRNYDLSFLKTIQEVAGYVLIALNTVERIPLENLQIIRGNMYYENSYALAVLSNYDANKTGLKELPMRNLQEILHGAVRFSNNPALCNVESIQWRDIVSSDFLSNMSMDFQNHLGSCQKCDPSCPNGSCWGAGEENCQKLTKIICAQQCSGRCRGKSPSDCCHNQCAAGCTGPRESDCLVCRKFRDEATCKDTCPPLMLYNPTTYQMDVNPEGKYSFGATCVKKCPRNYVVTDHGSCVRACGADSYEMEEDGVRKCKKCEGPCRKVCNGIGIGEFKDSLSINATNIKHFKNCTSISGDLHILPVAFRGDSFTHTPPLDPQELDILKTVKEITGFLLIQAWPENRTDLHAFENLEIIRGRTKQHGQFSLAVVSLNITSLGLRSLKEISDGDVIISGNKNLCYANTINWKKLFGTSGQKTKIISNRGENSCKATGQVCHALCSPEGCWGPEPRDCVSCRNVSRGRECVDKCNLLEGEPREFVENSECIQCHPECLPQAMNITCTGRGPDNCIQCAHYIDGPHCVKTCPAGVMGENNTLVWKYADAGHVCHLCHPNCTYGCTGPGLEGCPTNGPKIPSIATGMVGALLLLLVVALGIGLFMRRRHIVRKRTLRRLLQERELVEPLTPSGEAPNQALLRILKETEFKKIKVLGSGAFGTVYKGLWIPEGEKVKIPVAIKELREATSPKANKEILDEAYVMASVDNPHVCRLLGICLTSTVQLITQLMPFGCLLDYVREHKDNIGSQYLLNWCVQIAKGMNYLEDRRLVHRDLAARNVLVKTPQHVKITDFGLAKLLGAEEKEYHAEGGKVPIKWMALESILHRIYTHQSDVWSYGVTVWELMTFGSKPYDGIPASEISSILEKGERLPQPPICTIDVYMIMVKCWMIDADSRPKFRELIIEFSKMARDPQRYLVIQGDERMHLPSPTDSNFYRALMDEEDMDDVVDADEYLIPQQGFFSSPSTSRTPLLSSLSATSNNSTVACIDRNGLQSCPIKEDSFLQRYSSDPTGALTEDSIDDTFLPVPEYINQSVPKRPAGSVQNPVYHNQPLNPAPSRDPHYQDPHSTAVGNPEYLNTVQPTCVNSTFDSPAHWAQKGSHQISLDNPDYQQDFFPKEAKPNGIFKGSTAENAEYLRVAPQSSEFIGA
# Method in brief: as §2
# [5] = target: T5, Kdr (Homo sapiens, UniProt P35968); assay: Kinase inhibition assay (33P transfer), Kdr; details: Table 3; read-out: KDR-1
# T5 construct: Kinases are expressed as either kinase domains or full length constructs; made in house
# Method in brief: as §1
# [6] = target: T6, Flt-1 (Homo sapiens, UniProt P17948); assay: Kinase inhibition assay (33P transfer), Flt-1
# T6 construct: Kinases are expressed as either kinase domains or full length constructs; made in house
# Excerpt: (§3) The inhibitor compounds described herein are screened in the following manner. Kinases suitable for use in the following protocol to determine kinase activity of the compounds described herein include, -but are not limited to: Lck, Lyn, Src, Fyn, Syk, Zap-70, Itk, Tec, Btk, EGFR, ErbB2, Kdr, Flt-1, Flt-3, Tek, c-Met, InsR, and AKT.
# (§4) Kinases are expressed as either kinase domains or full length constructs fused to glutathione S-transferase (GST) or polyHistidine tagged fusion proteins in either E. colior Baculovirus-High Five expression systems. They are purified to near homogeneity by affinity chromatography essentially as previously described (Lehr et al., 1996; Gish et al., 1995). In some instances, kinases are co-expressed or mixed with purified or partially purified regulatory polypeptides prior to measurement of activity.
# (§5) Kinase activity and inhibition are measured essentially by established protocols (Braunwalder et al., 1996). Briefly, The transfer of ^33PO4 from ATP to the synthetic substrates poly(Glu, Tyr) 4:1 or poly(Arg, Ser) 3:1 attached to the bioactive surface of microtiter plates serves as the basis to evaluate enzyme activity. After an incubation period, the amount of phosphate transferred is measured by first washing the plate with 0.5% phosphoric acid, adding liquid scintillant, and then counting in a liquid scintillation detector. The IC50 is determined by the concentration of compound that causes a 50% reduction in the amount of […] incorporated onto the substrate bound to the plate.
# [7] = target: T7, c-Met (Homo sapiens, UniProt P08581); assay: Kinase inhibition assay (33P transfer), c-Met; details: Table 2, kinase inhibition class; read-out: Met-1
# T7 construct: Kinases are expressed as either kinase domains or full length constructs; made in house
# T7 sequence (P08581 25-1390): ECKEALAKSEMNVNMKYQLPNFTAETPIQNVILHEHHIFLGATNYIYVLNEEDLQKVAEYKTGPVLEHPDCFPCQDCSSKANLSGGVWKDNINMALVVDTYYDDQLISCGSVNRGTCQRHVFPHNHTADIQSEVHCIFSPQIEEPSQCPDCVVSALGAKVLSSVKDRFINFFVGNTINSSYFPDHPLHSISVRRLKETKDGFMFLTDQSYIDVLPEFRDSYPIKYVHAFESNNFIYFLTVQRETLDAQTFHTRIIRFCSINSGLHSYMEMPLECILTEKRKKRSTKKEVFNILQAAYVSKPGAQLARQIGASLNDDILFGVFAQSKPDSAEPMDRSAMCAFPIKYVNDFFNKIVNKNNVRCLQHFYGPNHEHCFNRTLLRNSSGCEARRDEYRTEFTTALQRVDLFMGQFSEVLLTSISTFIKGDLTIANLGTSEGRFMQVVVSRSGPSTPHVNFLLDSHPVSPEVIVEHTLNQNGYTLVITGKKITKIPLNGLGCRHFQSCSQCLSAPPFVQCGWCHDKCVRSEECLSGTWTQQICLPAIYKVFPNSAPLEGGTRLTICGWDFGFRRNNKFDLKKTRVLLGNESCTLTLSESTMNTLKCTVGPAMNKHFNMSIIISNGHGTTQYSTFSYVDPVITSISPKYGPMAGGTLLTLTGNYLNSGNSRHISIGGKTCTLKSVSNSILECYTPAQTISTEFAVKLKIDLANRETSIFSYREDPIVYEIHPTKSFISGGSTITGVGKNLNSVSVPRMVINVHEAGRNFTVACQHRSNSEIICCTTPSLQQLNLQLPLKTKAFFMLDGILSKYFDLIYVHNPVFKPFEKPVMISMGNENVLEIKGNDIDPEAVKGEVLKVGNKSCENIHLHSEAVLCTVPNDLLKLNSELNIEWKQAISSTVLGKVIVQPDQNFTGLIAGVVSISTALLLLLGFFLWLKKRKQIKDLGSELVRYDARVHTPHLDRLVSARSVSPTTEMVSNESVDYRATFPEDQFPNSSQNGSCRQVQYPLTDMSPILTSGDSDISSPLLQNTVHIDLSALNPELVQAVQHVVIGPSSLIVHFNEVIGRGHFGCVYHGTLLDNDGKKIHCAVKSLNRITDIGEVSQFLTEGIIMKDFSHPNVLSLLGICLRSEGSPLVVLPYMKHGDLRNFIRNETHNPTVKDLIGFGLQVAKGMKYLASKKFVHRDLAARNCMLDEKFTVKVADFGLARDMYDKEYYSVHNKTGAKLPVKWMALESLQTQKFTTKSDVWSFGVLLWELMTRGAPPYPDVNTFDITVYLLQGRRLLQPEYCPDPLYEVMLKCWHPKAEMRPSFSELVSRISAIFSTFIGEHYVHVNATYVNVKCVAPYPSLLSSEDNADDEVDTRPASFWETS
# Method in brief: as §2
# [8] = target: T8, PDGFRB (Homo sapiens, UniProt P09619); assay: Kinase inhibition assay (33P transfer), PDGFRB; details: read-out: PDGFRB-1
# T8 construct: Kinases are expressed as either kinase domains or full length constructs; made in house
# [9] = target: T9, FGFR1 (Homo sapiens, UniProt P11362); assay: Kinase inhibition assay (33P transfer), FGFR1; details: read-out: FGFR1-1
# T9 construct: Kinases are expressed as either kinase domains or full length constructs; made in house
# T9 sequence (P11362 22-822, species assumed): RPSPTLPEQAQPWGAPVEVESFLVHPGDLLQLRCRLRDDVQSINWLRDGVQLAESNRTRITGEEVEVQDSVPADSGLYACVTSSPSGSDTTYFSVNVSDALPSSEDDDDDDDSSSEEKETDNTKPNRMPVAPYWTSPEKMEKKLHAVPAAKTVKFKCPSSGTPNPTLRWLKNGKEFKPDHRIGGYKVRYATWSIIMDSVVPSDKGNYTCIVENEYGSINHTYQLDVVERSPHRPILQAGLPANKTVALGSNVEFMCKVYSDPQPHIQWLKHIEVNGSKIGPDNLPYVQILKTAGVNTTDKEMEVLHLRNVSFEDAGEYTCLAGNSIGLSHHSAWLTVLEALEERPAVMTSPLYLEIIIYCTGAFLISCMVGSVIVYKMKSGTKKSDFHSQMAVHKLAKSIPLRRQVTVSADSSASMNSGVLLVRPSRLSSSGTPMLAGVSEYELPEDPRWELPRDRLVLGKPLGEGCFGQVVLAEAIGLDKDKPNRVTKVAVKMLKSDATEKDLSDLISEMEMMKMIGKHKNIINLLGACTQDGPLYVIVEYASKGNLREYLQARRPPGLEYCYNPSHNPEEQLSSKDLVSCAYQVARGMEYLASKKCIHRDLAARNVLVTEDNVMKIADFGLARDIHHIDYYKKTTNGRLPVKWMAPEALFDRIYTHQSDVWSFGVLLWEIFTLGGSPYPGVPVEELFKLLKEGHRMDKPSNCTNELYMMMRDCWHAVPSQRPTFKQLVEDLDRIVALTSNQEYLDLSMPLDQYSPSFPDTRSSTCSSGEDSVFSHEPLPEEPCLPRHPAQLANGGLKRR
# [10] = target: T10, Lyn (Homo sapiens, UniProt P07948); assay: Kinase inhibition assay (33P transfer), Lyn; details: Table 6, Lyn-1 kinase inhibition class
# T10 construct: Kinases are expressed as either kinase domains or full length constructs; made in house
# T10 sequence (P07948 whole entry, species assumed, the tested form may be a part): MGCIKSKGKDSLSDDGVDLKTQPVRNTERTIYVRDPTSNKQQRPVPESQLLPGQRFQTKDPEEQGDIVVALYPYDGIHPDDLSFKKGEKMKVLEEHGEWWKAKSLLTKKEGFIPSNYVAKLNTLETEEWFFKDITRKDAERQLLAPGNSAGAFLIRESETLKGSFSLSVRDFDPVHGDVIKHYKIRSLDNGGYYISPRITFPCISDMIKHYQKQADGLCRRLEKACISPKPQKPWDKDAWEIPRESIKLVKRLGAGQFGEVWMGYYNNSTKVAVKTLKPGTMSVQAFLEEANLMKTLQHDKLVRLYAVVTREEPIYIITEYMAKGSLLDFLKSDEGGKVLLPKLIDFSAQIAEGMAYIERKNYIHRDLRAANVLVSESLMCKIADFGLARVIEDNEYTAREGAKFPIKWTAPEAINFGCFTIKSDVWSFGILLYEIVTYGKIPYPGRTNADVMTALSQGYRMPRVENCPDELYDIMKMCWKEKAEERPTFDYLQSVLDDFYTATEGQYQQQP
# Excerpt: as §3, §4, §5
# [11] = target: T11, Src (Homo sapiens, UniProt P12931); assay: Kinase inhibition assay (33P transfer), Src; details: Table 6, Src-1 kinase inhibition class
# T11 construct: Kinases are expressed as either kinase domains or full length constructs; made in house
# Excerpt: as §3, §4, §5
# [12] = target: T12, Fyn (Homo sapiens, UniProt P06241); assay: Kinase inhibition assay (33P transfer), Fyn; details: read-out: Fyn-1
# T12 construct: Kinases are expressed as either kinase domains or full length constructs; made in house
# Excerpt: as §3, §4, §5
# [13] = target: T13, Tek (Homo sapiens, UniProt Q02763); assay: Kinase inhibition assay (33P transfer), Tek; details: read-out: Tek-1
# T13 construct: Kinases are expressed as either kinase domains or full length constructs; made in house
# T13 sequence (Q02763 23-1124, species assumed): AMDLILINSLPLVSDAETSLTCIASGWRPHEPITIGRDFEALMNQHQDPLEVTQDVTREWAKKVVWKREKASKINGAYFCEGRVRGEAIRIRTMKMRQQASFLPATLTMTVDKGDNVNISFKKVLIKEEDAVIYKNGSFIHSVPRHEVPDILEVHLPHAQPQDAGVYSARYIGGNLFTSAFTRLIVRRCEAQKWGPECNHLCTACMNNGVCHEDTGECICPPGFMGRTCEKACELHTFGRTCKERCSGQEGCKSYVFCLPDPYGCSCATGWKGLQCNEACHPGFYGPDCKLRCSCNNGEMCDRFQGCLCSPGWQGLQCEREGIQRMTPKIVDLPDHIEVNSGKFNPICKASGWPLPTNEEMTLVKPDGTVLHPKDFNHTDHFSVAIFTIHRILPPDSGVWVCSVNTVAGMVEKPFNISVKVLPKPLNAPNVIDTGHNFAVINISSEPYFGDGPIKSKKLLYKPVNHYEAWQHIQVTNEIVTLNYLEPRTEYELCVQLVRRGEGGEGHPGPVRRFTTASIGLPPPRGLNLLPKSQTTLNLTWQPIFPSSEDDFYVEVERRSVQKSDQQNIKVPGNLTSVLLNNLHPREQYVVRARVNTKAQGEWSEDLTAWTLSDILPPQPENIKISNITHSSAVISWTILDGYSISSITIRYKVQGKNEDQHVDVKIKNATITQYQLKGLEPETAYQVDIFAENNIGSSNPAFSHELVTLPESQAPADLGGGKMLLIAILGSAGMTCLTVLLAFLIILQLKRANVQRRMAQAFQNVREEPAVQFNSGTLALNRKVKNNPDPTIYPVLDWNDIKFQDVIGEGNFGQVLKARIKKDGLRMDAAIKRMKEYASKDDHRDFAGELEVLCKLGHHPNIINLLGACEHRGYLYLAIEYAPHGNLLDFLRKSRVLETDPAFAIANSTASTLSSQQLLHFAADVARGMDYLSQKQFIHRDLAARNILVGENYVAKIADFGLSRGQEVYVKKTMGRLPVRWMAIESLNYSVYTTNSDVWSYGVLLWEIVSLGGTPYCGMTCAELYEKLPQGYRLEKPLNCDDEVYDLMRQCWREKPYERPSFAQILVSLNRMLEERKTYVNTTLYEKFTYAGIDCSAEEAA
# Method in brief: as §2
# [14] = target: T14, AKT (Homo sapiens, UniProt Q9Y243); assay: Kinase inhibition assay (33P transfer), AKT; details: Table 2, kinase inhibition class; read-out: AKT3-1
# T14 construct: Kinases are expressed as either kinase domains or full length constructs; made in house
# Method in brief: as §1
# [15] = target: T15, Hck-1 (Homo sapiens, UniProt P08631); assay: Kinase inhibition assay (33P transfer), Hck; details: Table 6, Hck-1 kinase inhibition class
# T15 construct: Kinases are expressed as either kinase domains or full length constructs; made in house
# [16] = target: T16, ErbB4 (Homo sapiens, UniProt Q15303); assay: Kinase inhibition assay (33P transfer), ErbB4; details: read-out: ErbB4-1
# T16 construct: Kinases are expressed as either kinase domains or full length constructs; made in house
Structure (SMILES),IC50 [1] [µM],IC50 [2] [µM],IC50 [3] [µM],IC50 [4] [µM],IC50 [5] [µM],IC50 [6] [µM],IC50 [7] [µM],IC50 [8] [µM],IC50 [9] [µM],IC50 [10] [µM],IC50 [11] [µM],IC50 [12] [µM],IC50 [13] [µM],IC50 [14] [µM],IC50 [15] [µM],IC50 [16] [µM]
COc1cc(Nc2ncnc(-n3cccc3)n2)cc(OC)c1OC [Compound 182],7.33 to 10.7,> 13.7,> 13.7,> 13.7,< 1.22,> 13.7,10.7 to 13.7,> 13.7,> 13.7,–,–,–,–,–,–,–
COc1cccc(Nc2nc3ccccc3n2-c2ncnc(Nc3cc(OC)c(OC)c(OC)c3)n2)c1 [Compound 415],4.8 to 7.01,> 9.01,> 9.01,> 9.01,< 0.801,0.801 to 4.8,> 9.01,< 0.801,< 0.801,> 9.01,> 9.01,> 9.01,> 9.01,> 9.01,> 9.01,> 9.01
COc1cc(Nc2ncnc(-n3c(NCC(C)C)nc4ccccc43)n2)cc(OC)c1OC [Compound 407],< 0.89,> 10,> 10,> 10,< 0.89,< 0.89,> 10,< 0.89,< 0.89,< 0.89,< 0.89,< 0.89,> 10,> 10,> 10,> 10

# Next, values leading:
IC50 [1] [µM],IC50 [2] [µM],IC50 [3] [µM],IC50 [4] [µM],IC50 [5] [µM],IC50 [6] [µM],IC50 [7] [µM],IC50 [8] [µM],IC50 [9] [µM],IC50 [10] [µM],IC50 [11] [µM],IC50 [12] [µM],IC50 [13] [µM],IC50 [14] [µM],IC50 [15] [µM],IC50 [16] [µM],Structure (SMILES)
< 1.02,> 11.4,< 1.02,> 11.4,< 1.02,< 1.02,1.02 to 6.1,< 1.02,< 1.02,< 1.02,< 1.02,< 1.02,6.1 to 8.9,8.9 to 11.4,> 11.4,1.02 to 6.1,COc1cc(Nc2ncnc(-n3ccc4cc(O)ccc43)n2)cc(OC)c1OC [Compound 202]
> 10.7,> 10.7,> 10.7,> 10.7,< 0.949,< 0.949,> 10.7,< 0.949,< 0.949,0.949 to 5.69,0.949 to 5.69,< 0.949,> 10.7,> 10.7,> 10.7,> 10.7,COc1cc(Nc2ncnc(-n3cc(CCO)c4ccccc43)n2)cc(OC)c1OC [Compound 463]
